Source: patent US8952034B2, “Fused heterocyclic compounds as ion channel modulators” (Gilead Sciences, Inc., priority 2009, dated 2015)

Target: wild-type human cardiac sodium channel, hNav1.5 (Homo sapiens, UniProt Q14524)
Test: Late INa screening assay (automated whole cell patch clamp, PatchXpress)
Format: cell-based
Conditions: compound at 1 μM; HEK293 cells expressing hNav1.5; late INa generated with 10 μM Tefluthrin (or 50 nM ATX II); read-out: LateINa_1 uM (percent block of late INa)
How it was run: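 Late sodium current through wild-type human hNav1.5 stably expressed in HEK293 cells (no beta subunits) was recorded by automated whole-cell patch clamp on a PatchXpress 7000A at 24-27° C. Late INa was induced with 10 μM Tefluthrin or 50 nM ATX II. Cells were stepped from −120 mV to −20 mV for 250 ms at 0.1 Hz, and percent block was normalized to current in Na-free extracellular solution.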

Sequence of wild-type human cardiac sodium channel, hNav1.5 (Q14524 whole entry): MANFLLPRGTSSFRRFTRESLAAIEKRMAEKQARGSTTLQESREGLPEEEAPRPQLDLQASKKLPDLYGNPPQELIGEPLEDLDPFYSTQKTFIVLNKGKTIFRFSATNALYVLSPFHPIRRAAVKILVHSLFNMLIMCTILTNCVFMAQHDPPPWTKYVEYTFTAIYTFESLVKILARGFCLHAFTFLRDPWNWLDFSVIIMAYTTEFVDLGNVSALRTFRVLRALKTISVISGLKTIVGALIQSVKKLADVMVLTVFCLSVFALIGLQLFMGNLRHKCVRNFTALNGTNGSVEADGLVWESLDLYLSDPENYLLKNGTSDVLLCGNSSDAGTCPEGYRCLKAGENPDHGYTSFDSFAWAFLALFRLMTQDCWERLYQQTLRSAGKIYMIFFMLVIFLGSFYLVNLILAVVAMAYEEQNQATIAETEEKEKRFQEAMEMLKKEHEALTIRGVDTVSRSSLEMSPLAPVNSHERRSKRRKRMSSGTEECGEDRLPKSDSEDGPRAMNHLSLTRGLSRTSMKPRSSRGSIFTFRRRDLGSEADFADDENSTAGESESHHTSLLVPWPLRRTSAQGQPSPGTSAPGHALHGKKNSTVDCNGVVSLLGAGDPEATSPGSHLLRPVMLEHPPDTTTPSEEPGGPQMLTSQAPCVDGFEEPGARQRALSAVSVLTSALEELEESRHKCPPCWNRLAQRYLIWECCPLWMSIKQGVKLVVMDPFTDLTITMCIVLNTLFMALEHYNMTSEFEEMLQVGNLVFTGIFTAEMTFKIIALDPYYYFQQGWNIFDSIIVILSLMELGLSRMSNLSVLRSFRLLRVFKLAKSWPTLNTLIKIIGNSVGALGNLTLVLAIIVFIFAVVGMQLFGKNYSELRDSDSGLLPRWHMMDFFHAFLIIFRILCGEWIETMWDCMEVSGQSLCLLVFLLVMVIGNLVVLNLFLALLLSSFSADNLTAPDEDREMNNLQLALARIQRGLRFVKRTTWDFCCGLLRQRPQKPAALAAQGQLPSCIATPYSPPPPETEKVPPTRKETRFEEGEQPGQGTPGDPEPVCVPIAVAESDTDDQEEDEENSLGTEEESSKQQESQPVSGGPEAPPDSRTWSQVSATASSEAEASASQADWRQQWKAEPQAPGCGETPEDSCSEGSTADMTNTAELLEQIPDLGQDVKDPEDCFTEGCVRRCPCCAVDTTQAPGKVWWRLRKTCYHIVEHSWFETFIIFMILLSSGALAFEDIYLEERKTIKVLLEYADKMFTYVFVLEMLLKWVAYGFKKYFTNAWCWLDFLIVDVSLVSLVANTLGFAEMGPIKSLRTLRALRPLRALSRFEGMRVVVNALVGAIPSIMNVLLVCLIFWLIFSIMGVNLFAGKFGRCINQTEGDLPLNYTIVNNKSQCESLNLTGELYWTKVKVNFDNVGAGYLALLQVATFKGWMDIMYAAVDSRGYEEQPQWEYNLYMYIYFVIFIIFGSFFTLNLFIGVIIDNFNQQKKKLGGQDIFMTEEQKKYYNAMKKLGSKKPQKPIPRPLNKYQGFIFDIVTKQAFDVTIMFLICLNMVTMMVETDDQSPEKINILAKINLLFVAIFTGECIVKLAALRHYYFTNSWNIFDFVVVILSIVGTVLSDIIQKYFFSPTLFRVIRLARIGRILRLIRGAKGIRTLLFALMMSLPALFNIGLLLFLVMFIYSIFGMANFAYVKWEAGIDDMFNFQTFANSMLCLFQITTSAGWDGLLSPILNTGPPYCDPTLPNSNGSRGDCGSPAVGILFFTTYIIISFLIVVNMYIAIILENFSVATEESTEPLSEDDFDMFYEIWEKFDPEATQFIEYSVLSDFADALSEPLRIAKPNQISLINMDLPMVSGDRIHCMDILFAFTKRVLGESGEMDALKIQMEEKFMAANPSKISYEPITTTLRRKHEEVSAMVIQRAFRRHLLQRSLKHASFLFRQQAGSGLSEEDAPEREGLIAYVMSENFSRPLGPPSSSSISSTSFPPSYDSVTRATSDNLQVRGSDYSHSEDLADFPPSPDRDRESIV

Cc1nn(-c2ccccc2)nc1COC(F)(F)c1nnc2ccc(-c3ccc(OC(F)(F)F)cc3)cn12 [BHN-300, 3-{difluoro[(5-methyl-2-phenyl-2H-1,2,3-triazol-4-yl)methoxy]methyl}-6-[4-(trifluoromethoxy)phenyl][1,2,4]triazolo[4,3-a]pyridine]
inhibition at 1 µM: 63%

Cn1ccc(COC(F)(F)c2nnc3ccc(-c4ccc(OC(F)(F)F)cc4)cn23)n1 [BHN-301, 3-{difluoro[(1-methyl-1H-pyrazol-3-yl)methoxy]methyl}-6-[4-(trifluoromethoxy)phenyl][1,2,4]triazolo[4,3-a]pyridine]
inhibition at 1 µM: 29.9%

Cc1cc(COC(F)(F)c2nnc3ccc(-c4ccc(OC(F)(F)F)cc4)cn23)nn1-c1ccc(Cl)cc1 [BHN-302, 3-[{[1-(4-chlorophenyl)-5-methyl-1H-pyrazol-3-yl]methoxy}(difluoro)methyl]-6-[4-(trifluoromethoxy)phenyl][1,2,4]triazolo[4,3-a]pyridine]
inhibition at 1 µM: 52.8%

FC(F)(F)Oc1ccc(-c2ccc3nnc(C(F)(F)OCCC(c4ccccc4)c4ccccc4)n3c2)cc1 [BHN-303, 3-[(3,3-diphenylpropoxy)(difluoro)methyl]-6-[4-(trifluoromethoxy)phenyl][1,2,4]triazolo[4,3-a]pyridine]
inhibition at 1 µM: 51%

FC(F)(F)c1ccc(C#Cc2ccc3nnc(Oc4ccccc4)n3c2)cc1 [BHN-304, 3-phenoxy-6-{[4-(trifluoromethyl)phenyl]ethynyl}[1,2,4]triazolo[4,3-a]pyridine]
inhibition at 1 µM: 28.2%

FC(F)(F)Oc1ccc(-c2ccc3nnc(C(F)(F)OCc4cccc(-c5ncccn5)c4)n3c2)cc1 [BHN-305, 3-(difluoro{[3-(pyrimidin-2-yl)benzyl]oxy}methyl)-6-[4-(trifluoromethoxy)phenyl][1,2,4]triazolo[4,3-a]pyridine]
inhibition at 1 µM: 59.6%

FC(F)(F)Oc1ccc(-c2ccc3nnc(C(F)(F)OCc4cccc(-c5cccnc5)c4)n3c2)cc1 [BHN-306, 3-(difluoro{[3-(pyridin-3-yl)benzyl]oxy}methyl)-6-[4-(trifluoromethoxy)phenyl][1,2,4]triazolo[4,3-a]pyridine]
inhibition at 1 µM: 49.7%

Cn1nc(COC(F)(F)c2nnc3ccc(-c4ccc(OC(F)(F)F)cc4)cn23)c2ccccc21 [BHN-307, 3-{difluoro[(1-methyl-1H-indazol-3-yl)methoxy]methyl}-6-[4-(trifluoromethoxy)phenyl][1,2,4]triazolo[4,3-a]pyridine]
inhibition at 1 µM: 68.5%

FC(F)(F)Oc1ccc(-c2ccc3nnc(C(F)(F)Cl)n3c2)cc1 [BHN-308, 3-[chloro(difluoro)methyl]-6-[4-(trifluoromethoxy)phenyl][1,2,4]triazolo[4,3-a]pyridine]
inhibition at 1 µM: 71.2%

COCC(F)(F)c1nnc2ccc(C#Cc3ccc(OC(F)(F)F)cc3)cn12 [BHN-309, 3-(1,1-difluoro-2-methoxyethyl)-6-{[4-(trifluoromethoxy)phenyl]ethynyl}[1,2,4]triazolo[4,3-a]pyridine]
inhibition at 1 µM: 25.2%

COCC(F)(F)c1nnc2ccc(C#Cc3ccc(F)cc3)cn12 [BHN-310, 3-(1,1-difluoro-2-methoxyethyl)-6-[(4-fluorophenyl)ethynyl][1,2,4]triazolo[4,3-a]pyridine]
inhibition at 1 µM: 21.7%

FC(F)(F)Oc1ccc(-c2ccc3nnc(C(F)(F)OCc4ccccc4-n4cncn4)n3c2)cc1 [BHN-311, 3-(difluoro{[2-(1H-1,2,4-triazol-1-yl)benzyl]oxy}methyl)-6-[4-(trifluoromethoxy)phenyl][1,2,4]triazolo[4,3-a]pyridine]
inhibition at 1 µM: 47.3%

Cc1nccn1-c1ccccc1COC(F)(F)c1nnc2ccc(-c3ccc(OC(F)(F)F)cc3)cn12 [BHN-312, 3-(difluoro{[2-(2-methyl-1H-imidazol-1-yl)benzyl]oxy}methyl)-6-[4-(trifluoromethoxy)phenyl][1,2,4]triazolo[4,3-a]pyridine]
inhibition at 1 µM: 51.4%

FC(F)(F)Oc1ccc(-c2ccc3nnc(C(F)(F)OCc4nc(-c5ccccc5)oc4C(F)(F)F)n3c2)cc1 [BHN-313, 3-(difluoro{[2-phenyl-5-(trifluoromethyl)-1,3-oxazol-4-yl]methoxy}methyl)-6-[4-(trifluoromethoxy)phenyl][1,2,4]triazolo[4,3-a]pyridine]
inhibition at 1 µM: 50%

FC(F)(F)Oc1ccc(-c2ccc3nnc(C(F)(F)OCc4cn(-c5ccccc5)nc4C(F)(F)F)n3c2)cc1 [BHN-314, 3-(difluoro{[1-phenyl-3-(trifluoromethyl)-1H-pyrazol-4-yl]methoxy}methyl)-6-[4-(trifluoromethoxy)phenyl][1,2,4]triazolo[4,3-a]pyridine]
inhibition at 1 µM: 24.2%

FC(F)(F)Oc1ccc(-c2ccc3nnc(C(F)(F)OCc4ccc(-n5cccn5)nc4)n3c2)cc1 [BHN-315, 3-(difluoro{[6-(1H-pyrazol-1-yl)pyridin-3-yl]methoxy}methyl)-6-[4-(trifluoromethoxy)phenyl][1,2,4]triazolo[4,3-a]pyridine]
inhibition at 1 µM: 55.9%

FC(F)(F)Oc1ccc(-c2ccc3nnc(C(F)(F)OCc4cc(-c5ccc(C6CC6)nc5)ccn4)n3c2)cc1 [BHN-316, 6-cyclopropyl-2′-[(difluoro{6-[4-(trifluoromethoxy)phenyl][1,2,4]triazolo[4,3-a]pyridin-3-yl}methoxy)methyl]-3,4′-bipyridine]
inhibition at 1 µM: 59%

FC(F)(F)Oc1ccc(-c2ccc3nnc(C(F)(F)OCc4cccc(-n5cnc(C6CC6)c5)c4)n3c2)cc1 [BHN-317, 3-[{[3-(4-cyclopropyl-1H-imidazol-1-yl)benzyl]oxy}(difluoro)methyl]-6-[4-(trifluoromethoxy)phenyl][1,2,4]triazolo[4,3-a]pyridine]
inhibition at 1 µM: 46.4%

Fc1ccc(-c2cc(COC(F)(F)c3nnc4ccc(-c5ccc(OC(F)(F)F)cc5)cn34)no2)cc1 [BHN-318, 3-(difluoro{[5-(4-fluorophenyl)-1,2-oxazol-3-yl]methoxy}methyl)-6-[4-(trifluoromethoxy)phenyl][1,2,4]triazolo[4,3-a]pyridine]
inhibition at 1 µM: 28.9%

FC(F)(F)c1ccc(-c2ccc3nnc(C(F)(F)OCc4cc(-c5ccccc5)on4)n3c2)cn1 [BHN-319, 3-{difluoro[(5-phenyl-1,2-oxazol-3-yl)methoxy]methyl}-6-[6-(trifluoromethyl)pyridin-3-yl][1,2,4]triazolo[4,3-a]pyridine]
inhibition at 1 µM: 30.5%

FC(F)(F)Oc1ccc(-c2ccc3nnc(C(F)(F)OCc4ccnc(N5CCCCC5)c4)n3c2)cc1 [BHN-320, 3-(difluoro{[2-(piperidin-1-yl)pyridin-4-yl]methoxy}methyl)-6-[4-(trifluoromethoxy)phenyl][1,2,4]triazolo[4,3-a]pyridine]
inhibition at 1 µM: 76.3%

CC1(C)Cc2cccc(COC(F)(F)c3nnc4ccc(-c5ccc(OC(F)(F)F)cc5)cn34)c2O1 [BHN-321, 3-{[(2,2-dimethyl-2,3-dihydro-1-benzofuran-7-yl)methoxy](difluoro)methyl}-6-[4-(trifluoromethoxy)phenyl][1,2,4]triazolo[4,3-a]pyridine]
inhibition at 1 µM: 65.6%

Fc1cccc(F)c1CCOC(F)(F)c1nnc2ccc(-c3ccc(OC(F)(F)F)cc3)cn12 [BHN-322, 3-{[2-(2,6-difluorophenyl)ethoxy](difluoro)methyl}-6-[4-(trifluoromethoxy)phenyl][1,2,4]triazolo[4,3-a]pyridine]
inhibition at 1 µM: 72.5%
